Measured values as given in patent US20030138380A1, “Gas emulsions stabilized with fluorinated ethers having low Ostwald coefficients” (priority 1995, published 2003).

How the values were obtained:
rabbit carotid artery = assay: Pulsed Doppler Signal Enhancement Rabbit Model (carotid artery); type: in vivo; details: Powder D, osmotic agent in mixture with nitrogen, injected dose 0.2 ml (ca. 1 mg dry powder per kg)
Experimental: (§1) One ml of the resulting microbubble suspension was injected intravenously into an approximately 3 kg rabbit instrumented to monitor the Doppler ultrasound signal of its carotid artery. A 10 MHz flow cuff (Triton Technology Inc., San Diego, Calif.; model ES-10-20) connected to a System 6 Doppler flow module (Triton Technology Inc.) fed the RF Doppler signal to a LeCroy 9410 oscilloscope (LeCroy, Chestnut Ridge, N.Y.). The root mean square (RMS) voltage of the signal computed by the oscilloscope was transferred to a computer and the resultant curve fitted to obtain peak echogenic signal intensity and half-life of the microbubbles in blood. Signals before contrast were less than 0.1 volts RMS.
as §1, with “half-ife” for “half-life”
as §1, with “RF doppler” for “RF Doppler”, “obtain Peak” for “obtain peak”
100 mg samples of the spray-dried powder were placed in 10-ml vials and gassed by perfluoroether-air mixture repeated evacuation-gassing cycles with the help of a syringe needle equipped with a three-way valve. As the filling gases, perfluorodimethyl ether (85%, Exfluor Research, Austin, Tex.), perfluoro(methylethyl ether) (80%, Exfluor Research, Austin, Tex.), perfluoro(diethyl ether) (90%, Strem Chemicals, Newburyport, Mass.), n-perfluoropropane and n-perfluorobutane (97%, PCR Incorporated) were used. […] Their echogenic properties in vivo were evaluated using a Pulsed Doppler Signal Enhancement Rabbit Model as described in Example III.
After reconstituting the powder with 10 ml of water, the bubbles were formed. Their echogenic properties in vivo were evaluated using a Pulsed Doppler Signal Enhancement Rabbit Model, as described in Example III, with the difference that the injected dose was reduced to 0.2 ml (ca. 1 mg of dry powder per kg of rabbit). FIGS. 2a, 2b, and 2c compare the decay of ultrasound signal over time for different filling gases at close partial pressures. The data are arranged in pairs so that microbubble preparations comprising perfluoroethers (thick lines) are compared directly with their perfluorocarbon analogues (thin lines). From the graphs it is evident that perfluoroether-filled bubbles have a longer persistence in the bloodstream than their fluorocarbon analogues.

[1] = 25 degrees C.; literature, or if not there calculated with the model of Lawson et al.; cited from earlier work
pig heart = assay: Second harmonic ultrasound imaging of the heart, pig model; type: in vivo, pigs; details: Powder D with osmotic agent-N2 mixture, 0.5 mL infused over 1 min via jugular vein
Experimental: After reconstituting the powder with 10 ml of water, the bubbles were formed.
Anesthetized pigs (14-16 kg) were fitted with indwelling catheters in the femoral artery and femoral and jugular veins for hemodynamic monitoring and contrast agent administration. Parasternal short-axis cardiac images at the level of the papillary muscles were obtained using an HP Sonos 2500 Ultrasound machine. Images were acquired in the Second Harmonic mode with a wide bandwidth linear phased array probe emitting at 2 MHz and receiving at 4 MHz. Imaging was intermittent (gated), triggered at end-diastole of every cardiac cycle. 0.5 mnL of reconstituted contrast agent was diluted with 0.5 mL sterile saline and infused over 1 min via the jugular vein.
FIGS. 3, 4, and 5 show a time course of ultrasound images of the heart following intravenous administration of contrast agents. […] FIGS. 4 and 5 show ultrasound images of the same hearts one minute and six minutes after infusion with the respective contrast agents. FIGS. 3a, 4a, and 5a show the ultrasound images of the heart following intravenous administration of contrast agent stabilized by perfluoropolyether. FIGS. 3b, 4b, and 5b show the ultrasound images of the heart following intravenous administration of contrast agent stabilized by perfluorohexane.

[2] = 25 degrees C.; first four values, as reported by Wilhelm, Battino and Wilcock; cited from earlier work

FC(F)(F)OC(F)(F)C(F)(F)OC(F)(F)C(F)(F)OC(F)(F)F [CF3O(CF2CF2O)2CF3, perfluorodiglyme]
Time of decay of the Doppler signal to baseline, s, at ρF = 0.13 ± 0.03 atm (rabbit carotid artery): >1800 s
PF, sat9 atm (saturated vapor pressure) [1]: 0.20 atm

FC(F)(F)OC(F)(F)C(F)(F)OC(F)(F)C(F)(F)F [CF3OC2F4OC2F5]
PF, sat9 atm (saturated vapor pressure) [1]: 0.55 atm

FC(F)(F)OC(F)(F)C(F)(F)OC(F)(F)F [CF3OC2F4OCF3, perfluoromonoglyme]
Time of decay of the Doppler signal to baseline, s, at ρF = 0.13 ± 0.03 atm (rabbit carotid artery): 400 s
PF, sat9 atm (saturated vapor pressure) [1]: 1.16 atm

FC(F)(F)OC(F)(F)F [CF3OCF3, perfluorodimethylether]
PF, sat9 atm (saturated vapor pressure) [1]: 10.9 atm

FC(F)(F)OC(F)(F)OC(F)(F)OC(F)(F)OC(F)(F)F [CF3—(OCF2)3OCF3]
contrast of the heart one minute after injection (pig heart): Substantial contrast of the heart
tissue contrast of the heart at six minutes (pig heart): still a great deal of tissue contrast
Time of decay of the Doppler signal to baseline, s, at ρF = 0.13 ± 0.03 atm (rabbit carotid artery): 1200 s

FC(F)(F)F [CF4]
L × 10^6 (Ostwald coefficient) [2]: 5172
PF, sat9 atm (saturated vapor pressure) [1]: 159 atm

FS(F)(F)(F)(F)F [SF6]
L × 10^6 (Ostwald coefficient) [2]: 5950
PF, sat9 atm (saturated vapor pressure) [1]: 23.5 atm

FC(F)(F)C(F)(F)OC(F)(F)C(F)(F)F [Sample C2F5OC2F5, perfluorodiethylether]
PF, sat9 atm (saturated vapor pressure) [1]: 1.9 atm

FC(F)(F)C(F)(F)F [Sample C2F6, C2F6]
PF, sat9 atm (saturated vapor pressure) [1]: 26.2 atm

FC(F)(F)C(F)(F)C(F)(F)OC(F)(F)C(F)(F)C(F)(F)F [Sample C3F7OC3F7, C3F7OC3F7]
PF, sat9 atm (saturated vapor pressure) [1]: 0.30 atm

O=O [Sample O2, oxygen]
L × 10^6 (Ostwald coefficient) [2]: 31110

FC(F)(F)C(F)(F)C(F)(F)F [n-C3F8, n-perfluoropropane]
PF, sat9 atm (saturated vapor pressure) [1]: 6.8 atm

FC(F)(F)C(F)(F)C(F)(F)C(F)(F)F [n-C4F10, perfluorobutane]
Time of decay of the Doppler signal to baseline, s, at ρF = 0.13 ± 0.03 atm (rabbit carotid artery): 300 s
PF, sat9 atm (saturated vapor pressure) [1]: 2.2 atm

FC(F)(F)C(F)(F)C(F)(F)C(F)(F)C(F)(F)F [n-C5F12, perfluoropentane]
Time of decay of the Doppler signal to baseline, s, at ρF = 0.13 ± 0.03 atm (rabbit carotid artery): 400 s
PF, sat9 atm (saturated vapor pressure) [1]: 0.84 atm

FC(F)(F)C(F)(F)C(F)(F)C(F)(F)C(F)(F)C(F)(F)F [n-C6F14, perfluorohexane]
contrast of the heart one minute after injection (pig heart): Substantial contrast of the heart
tissue contrast of the heart at six minutes (pig heart): declined markedly
Time of decay of the Doppler signal to baseline, s, at ρF = 0.13 ± 0.03 atm (rabbit carotid artery): 600 s
PF, sat9 atm (saturated vapor pressure) [1]: 0.27 atm

nitrogen [Sample N2]
L × 10^6 (Ostwald coefficient) [2]: 15880
